Details: for mass density: Fluid (supercritical or subcritical phases), Vibrating tube method

C=CCC [1-butene]
Details	Critical density [kg/m3]	mass density [kg/m3]	vapor or sublimation pressure [kPa]
388.24 K, 35013 kPa	–	554.66	–
388.24 K, 40001 kPa	–	562.62	–
393.24 K, 3099 kPa	–	433.35	–
393.24 K, 4988 kPa	–	452.98	–
393.24 K, 10001 kPa	–	483.54	–
393.24 K, 14990 kPa	–	503.16	–
393.24 K, 20005 kPa	–	518.2	–
393.24 K, 24996 kPa	–	530.47	–
393.24 K, 30000 kPa	–	540.98	–
393.24 K, 35004 kPa	–	550.18	–
393.24 K, 39996 kPa	–	558.42	–
395.35 K, Liquid	–	–	2678.7
398.24 K, 3328 kPa	–	420.6	–
398.24 K, 4984 kPa	–	441.24	–
398.24 K, 9995 kPa	–	475.63	–
398.24 K, 14988 kPa	–	496.67	–
398.24 K, 20004 kPa	–	512.53	–
398.24 K, 24995 kPa	–	525.32	–
398.24 K, 29999 kPa	–	536.22	–
398.24 K, 34991 kPa	–	545.71	–
398.24 K, 40002 kPa	–	554.2	–
403.24 K, 3570 kPa	–	406.72	–
403.24 K, 4981 kPa	–	428.43	–
403.24 K, 9984 kPa	–	467.46	–
403.24 K, 14984 kPa	–	490.08	–
403.24 K, 19994 kPa	–	506.77	–
403.24 K, 24991 kPa	–	520.14	–
403.24 K, 29990 kPa	–	531.44	–
403.24 K, 34986 kPa	–	541.24	–
403.24 K, 40010 kPa	–	549.99	–
403.65 K, Liquid	–	–	3085.8
408.24 K, 3826 kPa	–	391.44	–
408.24 K, 4981 kPa	–	414.13	–
408.24 K, 9995 kPa	–	459.14	–
408.24 K, 14983 kPa	–	483.4	–
408.24 K, 19998 kPa	–	501	–
408.24 K, 24993 kPa	–	514.95	–
408.24 K, 29994 kPa	–	526.66	–
408.24 K, 34991 kPa	–	536.79	–
408.24 K, 40009 kPa	–	545.77	–
409.68 K, Liquid	–	–	3413.2
413.24 K, 4097 kPa	–	374.62	–
413.24 K, 4986 kPa	–	397.78	–
413.24 K, 9991 kPa	–	450.43	–
413.24 K, 14983 kPa	–	476.61	–
413.24 K, 20002 kPa	–	495.19	–
413.24 K, 24998 kPa	–	509.75	–
413.24 K, 30000 kPa	–	521.88	–
413.24 K, 34989 kPa	–	532.32	–
413.24 K, 40005 kPa	–	541.58	–
415.36 K, Liquid	–	–	3739.2
418.24 K, 4381 kPa	–	356.12	–
418.24 K, 4990 kPa	–	378.2	–
418.24 K, 9997 kPa	–	441.54	–
418.24 K, 14996 kPa	–	469.76	–
418.24 K, 20000 kPa	–	489.3	–
418.24 K, 24996 kPa	–	504.48	–
418.24 K, 29999 kPa	–	517.07	–
418.24 K, 34991 kPa	–	527.85	–
418.24 K, 40005 kPa	–	537.36	–
423.24 K, 5017 kPa	–	354.2	–
423.24 K, 9991 kPa	–	431.88	–
423.24 K, 14996 kPa	–	462.7	–
423.24 K, 20000 kPa	–	483.36	–
423.24 K, 24995 kPa	–	499.21	–
423.24 K, 29997 kPa	–	512.25	–
423.24 K, 34989 kPa	–	523.35	–
423.24 K, 39991 kPa	–	533.12	–
428.24 K, 5020 kPa	–	318.6	–
428.24 K, 9997 kPa	–	422.29	–
428.24 K, 14995 kPa	–	455.57	–
428.24 K, 19996 kPa	–	477.35	–
428.24 K, 24996 kPa	–	493.9	–
428.24 K, 29993 kPa	–	507.4	–
428.24 K, 34987 kPa	–	518.87	–
428.24 K, 39990 kPa	–	528.9	–
433.24 K, 5019 kPa	–	257.92	–
433.24 K, 9998 kPa	–	412.15	–
433.24 K, 14987 kPa	–	448.26	–
433.24 K, 19989 kPa	–	471.28	–
433.24 K, 24994 kPa	–	488.57	–
433.24 K, 29992 kPa	–	502.55	–
433.24 K, 34997 kPa	–	514.38	–
433.24 K, 40003 kPa	–	524.73	–
438.24 K, 5011 kPa	–	195.21	–
438.24 K, 9986 kPa	–	401.49	–
438.24 K, 14995 kPa	–	440.85	–
438.24 K, 19991 kPa	–	465.16	–
438.24 K, 24999 kPa	–	483.18	–
438.24 K, 29997 kPa	–	497.7	–
438.24 K, 35010 kPa	–	509.95	–
438.24 K, 39994 kPa	–	520.5	–
443.24 K, 5018 kPa	–	165.31	–
443.24 K, 14986 kPa	–	433.23	–
443.24 K, 20005 kPa	–	458.99	–
443.24 K, 24988 kPa	–	477.7	–
443.24 K, 30010 kPa	–	492.78	–
443.24 K, 35012 kPa	–	505.33	–
443.24 K, 39996 kPa	–	516.19	–
443.25 K, 9990 kPa	–	390.35	–
448.24 K, 5018 kPa	–	148	–
448.24 K, 14981 kPa	–	425.58	–
448.24 K, 19992 kPa	–	452.7	–
448.24 K, 24997 kPa	–	472.33	–
448.24 K, 29998 kPa	–	487.86	–
448.24 K, 34998 kPa	–	500.83	–
448.24 K, 39998 kPa	–	512	–
448.25 K, 9991 kPa	–	378.84	–
453.24 K, 5018 kPa	–	136.35	–
453.24 K, 14996 kPa	–	418.01	–
453.24 K, 19984 kPa	–	446.42	–
453.24 K, 24987 kPa	–	466.88	–
453.24 K, 29994 kPa	–	482.99	–
453.24 K, 34990 kPa	–	496.33	–
453.24 K, 40001 kPa	–	507.8	–
453.25 K, 9992 kPa	–	366.88	–
458.24 K, 5019 kPa	–	127.66	–
458.24 K, 14983 kPa	–	409.67	–
458.24 K, 20004 kPa	–	440.23	–
458.24 K, 29989 kPa	–	478.1	–
458.24 K, 34985 kPa	–	491.83	–
458.24 K, 39994 kPa	–	503.63	–
458.25 K, 9993 kPa	–	354.52	–
458.25 K, 25009 kPa	–	461.51	–
463.24 K, 5016 kPa	–	120.75	–
463.24 K, 14996 kPa	–	401.9	–
463.24 K, 19997 kPa	–	433.9	–
463.24 K, 25004 kPa	–	456.08	–
463.24 K, 30003 kPa	–	473.27	–
463.24 K, 34993 kPa	–	487.39	–
463.25 K, 9983 kPa	–	341.52	–
463.25 K, 39998 kPa	–	499.47	–
468.24 K, 5016 kPa	–	115	–
468.24 K, 9989 kPa	–	328.56	–
468.24 K, 14982 kPa	–	393.76	–
468.24 K, 19984 kPa	–	427.48	–
468.24 K, 24997 kPa	–	450.6	–
468.24 K, 30000 kPa	–	468.38	–
468.24 K, 35011 kPa	–	482.95	–
468.24 K, 39999 kPa	–	495.31	–
473.24 K, 5018 kPa	–	110.27	–
473.24 K, 9985 kPa	–	315.25	–
473.24 K, 19988 kPa	–	421.13	–
473.24 K, 24992 kPa	–	445.14	–
473.24 K, 29997 kPa	–	463.51	–
473.24 K, 35002 kPa	–	478.49	–
473.24 K, 39996 kPa	–	491.17	–
473.25 K, 14995 kPa	–	385.74	–
478.24 K, 5019 kPa	–	106.11	–
478.24 K, 9987 kPa	–	302.04	–
478.24 K, 14989 kPa	–	377.47	–
478.24 K, 19983 kPa	–	414.69	–
478.24 K, 24987 kPa	–	439.66	–
478.24 K, 30006 kPa	–	458.68	–
478.24 K, 35011 kPa	–	474.08	–
478.24 K, 39998 kPa	–	487.02	–
483.24 K, 5019 kPa	–	102.43	–
483.24 K, 9986 kPa	–	289.02	–
483.24 K, 14996 kPa	–	369.24	–
483.24 K, 19994 kPa	–	408.37	–
483.24 K, 24993 kPa	–	434.22	–
483.24 K, 30007 kPa	–	453.8	–
483.24 K, 35009 kPa	–	469.63	–
483.24 K, 39997 kPa	–	482.92	–
488.24 K, 5019 kPa	–	99.18	–
488.24 K, 9991 kPa	–	276.55	–
488.24 K, 14995 kPa	–	361.05	–
488.24 K, 20003 kPa	–	402.02	–
488.24 K, 24984 kPa	–	428.73	–
488.24 K, 29996 kPa	–	448.96	–
488.24 K, 35002 kPa	–	465.2	–
488.24 K, 39995 kPa	–	478.82	–
493.24 K, 5019 kPa	–	96.24	–
493.24 K, 9993 kPa	–	264.66	–
493.24 K, 14985 kPa	–	352.7	–
493.24 K, 19990 kPa	–	395.6	–
493.24 K, 24997 kPa	–	423.36	–
493.24 K, 30000 kPa	–	444.14	–
493.24 K, 35000 kPa	–	460.8	–
493.24 K, 39994 kPa	–	474.74	–
498.24 K, 5019 kPa	–	93.59	–
498.24 K, 9985 kPa	–	253.12	–
498.24 K, 14988 kPa	–	344.51	–
498.24 K, 19988 kPa	–	389.08	–
498.24 K, 25004 kPa	–	417.97	–
498.24 K, 30000 kPa	–	439.33	–
498.24 K, 35005 kPa	–	456.43	–
498.24 K, 39995 kPa	–	470.68	–
503.24 K, 5016 kPa	–	91.1	–
503.24 K, 9996 kPa	–	242.88	–
503.24 K, 14997 kPa	–	336.49	–
503.24 K, 19985 kPa	–	382.45	–
503.24 K, 25003 kPa	–	412.55	–
503.24 K, 29994 kPa	–	434.51	–
503.24 K, 34998 kPa	–	452.04	–
503.24 K, 39994 kPa	–	466.64	–
508.24 K, 5019 kPa	–	88.94	–
508.24 K, 9985 kPa	–	232.83	–
508.24 K, 14995 kPa	–	328.41	–
508.24 K, 20001 kPa	–	376.3	–
508.24 K, 25001 kPa	–	407.17	–
508.24 K, 29985 kPa	–	429.72	–
508.24 K, 34995 kPa	–	447.71	–
508.24 K, 39994 kPa	–	462.63	–
513.23 K, 19985 kPa	–	369.92	–
513.23 K, 35000 kPa	–	443.43	–
513.24 K, 5019 kPa	–	86.9	–
513.24 K, 9990 kPa	–	224.06	–
513.24 K, 14981 kPa	–	320.32	–
513.24 K, 24995 kPa	–	401.8	–
513.24 K, 30001 kPa	–	425.05	–
513.24 K, 39991 kPa	–	458.64	–
518.23 K, 5019 kPa	–	85.01	–
518.23 K, 14997 kPa	–	312.76	–
518.23 K, 19988 kPa	–	363.73	–
518.23 K, 25002 kPa	–	396.53	–
518.23 K, 30001 kPa	–	420.37	–
518.23 K, 35013 kPa	–	439.18	–
518.24 K, 9981 kPa	–	215.7	–
518.24 K, 39995 kPa	–	454.74	–
523.23 K, 5018 kPa	–	83.27	–
523.23 K, 9990 kPa	–	208.53	–
523.23 K, 14996 kPa	–	305.24	–
523.23 K, 19995 kPa	–	357.64	–
523.23 K, 25003 kPa	–	391.29	–
523.23 K, 30001 kPa	–	415.71	–
523.23 K, 35000 kPa	–	434.96	–
523.23 K, 40001 kPa	–	450.86	–
Liquid, visual observation in a variable volume cell:FP	237.88	–	–

Liquid
Details	Critical pressure [kPa]	Critical temperature [K]
–	4005.1	419.29
